This assay has as its system BDF1 mice, P388 leukemia ip, median survival T/C. The assay can be described thus: NCI In Vivo Anticancer Drug Screen. Data for tumor model P388 Leukemia (intraperitoneal) in B6D2F1 (BDF1) mice. Particulars: endpoint: median survival time, higher = longer survival. In short, it runs like this: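 Compound-treated tumour-bearing mice were compared with vehicle-treated controls. Survival was recorded, and the value is the treated-group measurement divided by the control-group measurement (T/C).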

Where [1] appears, read: dose: 12.5 mg/kg/injection, schedule: Q01DX009 (ip), vehicle: saline with Tween-80.
The mark [2] stands for this setting: dose: 25.0 mg/kg/injection, schedule: Q01DX009 (ip), vehicle: saline with Tween-80.
The mark [3] stands for this setting: dose: 50.0 mg/kg/injection, schedule: Q01DX009 (ip), vehicle: saline with Tween-80.
[4] abbreviates: dose: 100.0 mg/kg/injection, schedule: Q04DX003 (ip), vehicle: Klucel (hydroxypropylcellulose) (HPC).
[5] abbreviates: dose: 200.0 mg/kg/injection, schedule: Q04DX003 (ip), vehicle: Klucel (hydroxypropylcellulose) (HPC).
[6] abbreviates: dose: 12.5 mg/kg/injection, schedule: Q01DX009 (ip), vehicle: saline.
Where [7] appears, read: dose: 25.0 mg/kg/injection, schedule: Q01DX009 (ip), vehicle: saline.
[8] abbreviates: dose: 7.5 mg/kg/injection, schedule: Q01DX009 (ip), vehicle: saline with Tween-80.
The mark [9] stands for this setting: dose: 100.0 mg/kg/injection, schedule: Q01DX009 (ip), vehicle: saline with Tween-80.

The structures appear in SMILES notation. Values joined by “and” are separate entries in the source; they are usually repeats but may differ in a detail not shown here. Identical values can stand only once. Toxic doses and inconclusive results are not listed.

For `CCOC(Cn1ccc(=O)[nH]c1=O)OCC`, the T/C reads like this: (dose: 100.0 mg/kg/injection, schedule: Q04DX003 (ip), vehicle: saline sonified) 100 % of control; (dose: 200.0 mg/kg/injection, schedule: Q04DX003 (ip), vehicle: saline sonified) 104 % of control; (dose: 400.0 mg/kg/injection, schedule: Q04DX003 (ip), vehicle: saline sonified) 109 % of control.

Consider `COC(=O)C(CO)NC(=O)OCc1ccc(OC)cc1` (stereo unspecified), for which the T/C runs as follows: (dose: 12.5 mg/kg/injection, schedule: Q01DX009 (ip), vehicle: distilled water + Tween-80) 87 % of control; (dose: 25.0 mg/kg/injection, schedule: Q01DX009 (ip), vehicle: distilled water + Tween-80) 89 % of control; (dose: 50.0 mg/kg/injection, schedule: Q01DX009 (ip), vehicle: distilled water + Tween-80) 104 % of control; (dose: 100.0 mg/kg/injection, schedule: Q01DX009 (ip), vehicle: distilled water + Tween-80) 114 % of control.

Take `CC(=O)Oc1c(C)c2c(O)c3c1C1=C(OCOC1=C(C)C3=O)C(C)=CC(C)(O)C(O)C(C)C(O)C1C(=O)OC(C(C)/C=C\C=C(C)C(=O)N2)C(C)C1O` (stereo unspecified): the T/C was 119 % of control (dose: 100.0 mg/kg/injection, schedule: Q01DX009 (ip), vehicle: Klucel (hydroxypropylcellulose) (HPC)); 123 % of control (dose: 200.0 mg/kg/injection, schedule: Q01DX009 (ip), vehicle: Klucel (hydroxypropylcellulose) (HPC)); 110 % of control (dose: 400.0 mg/kg/injection, schedule: Q01DX009 (ip), vehicle: Klucel (hydroxypropylcellulose) (HPC)).

Take `CCCC(C)(O)C#CC(C)(O)CCC` (stereo unspecified): the T/C under setting [1] was 101 % of control; the T/C under setting [2] is 92 % of control; the T/C under setting [3] was 93 % of control; the T/C (dose: 100.0 mg/kg/injection, schedule: Q04DX003 (ip), vehicle: saline with Tween-80) was 100 % of control; the T/C (dose: 200.0 mg/kg/injection, schedule: Q04DX003 (ip), vehicle: saline with Tween-80) is 104 % of control; the T/C (dose: 400.0 mg/kg/injection, schedule: Q04DX003 (ip), vehicle: saline with Tween-80) is 90 % of control.

For the molecule `Cc1cc(NS(=O)(=O)c2ccccc2)ccc1NS(=O)(=O)c1ccccc1`, the T/C was 87 % of control (dose: 75.0 mg/kg/injection, schedule: Q01DX009 (ip), vehicle: Klucel (hydroxypropylcellulose) (HPC)); 104 % of control under setting [4]; 100 % of control (dose: 150.0 mg/kg/injection, schedule: Q01DX009 (ip), vehicle: Klucel (hydroxypropylcellulose) (HPC)); 100 % of control under setting [5]; 87 % of control (dose: 300.0 mg/kg/injection, schedule: Q01DX009 (ip), vehicle: Klucel (hydroxypropylcellulose) (HPC)); 95 % of control (dose: 400.0 mg/kg/injection, schedule: Q04DX003 (ip), vehicle: Klucel (hydroxypropylcellulose) (HPC)).

On to `CCN(CC)N=Nc1ccccc1-c1nc(N)c2ccccc2n1`, for which the T/C reads like this: (dose: 50.0 mg/kg/injection, schedule: Q04DX003 (ip), vehicle: Klucel (hydroxypropylcellulose) (HPC)) 157 % of control; under setting [4], 161 % of control; under setting [5], 180 % of control.

`CSCCCNC(=O)c1csc(-c2csc(CCNC(=O)c3ccccc3)n2)n1`: the T/C reads like this: (dose: 8.0 mg/kg/injection, schedule: Q01DX009 (ip), vehicle: saline) 100 % of control; (dose: 16.0 mg/kg/injection, schedule: Q01DX009 (ip), vehicle: saline) 100 % of control; (dose: 32.0 mg/kg/injection, schedule: Q01DX009 (ip), vehicle: saline) 110 % of control; (dose: 64.0 mg/kg/injection, schedule: Q01DX009 (ip), vehicle: saline) 120 % of control.

Take `C=CCOCC(O)CN(CCCC)CCCC` (stereo unspecified): the T/C under setting [1] was 95 % of control, the T/C under setting [2] was 95 % of control and the T/C under setting [3] is 105 % of control.

With `[Cl][Ni][Cl].[NH-]CCN1CC1.[NH-]CCN1CC1`, the T/C runs as follows: (dose: 6.25 mg/kg/injection, schedule: Q01DX001 (ip), vehicle: saline) 100 % of control; (dose: 12.5 mg/kg/injection, schedule: Q01DX001 (ip), vehicle: saline) 100 % of control; (dose: 25.0 mg/kg/injection, schedule: Q01DX001 (ip), vehicle: saline) 100 % of control.

Consider `CC(C)C(C=O)C(O)(C(F)(F)F)C(F)(F)Cl` (stereo unspecified), for which the T/C under setting [6] was 95 % of control and the T/C under setting [7] was 100 % of control.

For `CCCCCCCN(CCCCCCC)CC(O)c1cc2ccccc2c2cnccc12` (stereo unspecified), the T/C reads like this: (dose: 75.0 mg/kg/injection, schedule: Q04DX003 (ip), vehicle: saline with Tween-80) 104 % of control; (dose: 150.0 mg/kg/injection, schedule: Q04DX003 (ip), vehicle: saline with Tween-80) 113 % of control; (dose: 300.0 mg/kg/injection, schedule: Q04DX003 (ip), vehicle: saline with Tween-80) 95 % of control.

With `S=C(NCCNC(=S)[S][Sn]([c]1ccccc1)([c]1ccccc1)[c]1ccccc1)[S][Sn]([c]1ccccc1)([c]1ccccc1)[c]1ccccc1`, the T/C is 100 % of control (dose: 3.3 mg/kg/injection, schedule: Q01DX009 (ip), vehicle: saline with Tween-80); 117 % of control (dose: 5.0 mg/kg/injection, schedule: Q01DX009 (ip), vehicle: saline with Tween-80); 108 % of control under setting [8]; 115 % of control under setting [3].

For the molecule `CCOC(=O)c1ccc(NC(=O)Nc2nc(C)cs2)cc1`, the T/C is 103 % of control (dose: 25.0 mg/kg/injection, schedule: Q01DX009 (ip), vehicle: other) and 99 % of control (dose: 100.0 mg/kg/injection, schedule: Q01DX009 (ip), vehicle: other).

In the case of `CC1CN1S(=O)(=O)N1CC1C` (stereo unspecified), the T/C is, setting by setting: (dose: 3.75 mg/kg/injection, schedule: Q01DX009 (ip), vehicle: saline with Tween-80) 100 % of control; under setting [8], 112 % of control; (dose: 15.0 mg/kg/injection, schedule: Q01DX009 (ip), vehicle: saline with Tween-80) 158 % of control; (dose: 16.5 mg/kg/injection, schedule: Q04DX003 (ip), vehicle: saline with Tween-80) 113 % of control; (dose: 25.0 mg/kg/injection, schedule: Q04DX003 (ip), vehicle: saline with Tween-80) 154 % of control and 213 % of control; (dose: 30.0 mg/kg/injection, schedule: Q01DX009 (ip), vehicle: saline with Tween-80) 258 % of control. In addition, the T/C (dose: 37.5 mg/kg/injection, schedule: Q04DX003 (ip), vehicle: saline with Tween-80) is 204 % of control.

`CC[C@H]1OC(=O)[C@H](C)[C@@H](OC2CC(C)(OC)C(OC(=O)CCCC(=O)O)C(C)O2)[C@H](C)[C@@H](OC2OC(C)CC(N(C)C)C2O)[C@](C)(O)C[C@@H](C)C(=O)[C@H](C)[C@@H](O)[C@]1(C)O` (stereo partly specified): the T/C (dose: 7.5 mg/kg/injection, schedule: Q01DX009 (ip), vehicle: Klucel (hydroxypropylcellulose) (HPC)) is 111 % of control; the T/C (dose: 15.0 mg/kg/injection, schedule: Q01DX009 (ip), vehicle: Klucel (hydroxypropylcellulose) (HPC)) is 101 % of control; the T/C (dose: 30.0 mg/kg/injection, schedule: Q01DX009 (ip), vehicle: Klucel (hydroxypropylcellulose) (HPC)) is 97 % of control; the T/C (dose: 60.0 mg/kg/injection, schedule: Q01DX009 (ip), vehicle: Klucel (hydroxypropylcellulose) (HPC)) is 111 % of control.

In the case of `CNC(=O)C(C)C1C(=O)/C(=C(O)/C=C\C(C)=C\C(C)C2OC3(C)OC(C=CC34CO4)C2C)C(=O)N1C1CCC(O)C(C)O1` (stereo unspecified), the T/C is 109 % of control under setting [9]; 100 % of control (dose: 200.0 mg/kg/injection, schedule: Q01DX009 (ip), vehicle: saline with Tween-80); 109 % of control (dose: 400.0 mg/kg/injection, schedule: Q01DX009 (ip), vehicle: saline with Tween-80).

For the molecule `CCCCCCCCCC[N+]1([O-])CCCCC1`, the T/C runs as follows: under setting [6], 98 % of control; under setting [7], 91 % of control; (dose: 50.0 mg/kg/injection, schedule: Q01DX009 (ip), vehicle: saline) 94 % of control.

For `O=C1NC(=O)C(=Cc2cc3c(cc2Br)OCO3)C(=O)N1`, the T/C is 123 % of control (dose: 75.0 mg/kg/injection, schedule: Q01DX009 (ip), vehicle: saline with Tween-80); 124 % of control under setting [9]; 120 % of control (dose: 150.0 mg/kg/injection, schedule: Q01DX009 (ip), vehicle: saline with Tween-80).

The values are drawn from PubChem BioAssay AID328 (DTP/NCI, 2004).
